Source: US20240190883A1, “KRAS PROTEIN DEGRADERS, PHARMACEUTICAL COMPOSITIONS THEREOF, AND THEIR THERAPEUTIC APPLICATIONS” (BioTheryX, Inc., priority 2021, published 2024)
Read-outs that look alike come from different tables or passages of the source.

Key:
Format in all cases: cell-based
H358 (G12C) cells = assay: Cell viability assay (CELLTITER-GLO), H358 cells; settings: 3 days incubation, 2.5% fetal bovine serum, read-out: Inhibition of Cancerous Cells IC50 (μM) H358 (G12C)
Protocol: (§1) H358, H23, SW48, and AsPC-1 cells were cultured in RPMI 1640 media supplemented with 10% fetal bovine serum, streptomycin, and penicillin. Lovo and SW480 cells were cultured in DMEM media supplemented with 10% fetal bovine serum, streptomycin, and penicillin. The cell lines were plated in their respective medium supplemented with 2.5% fetal bovine serum, streptomycin, and penicillin. All cell lines were plated in white walled 96-well plates at 2,000 cells/well or 384-well plates at 500 cells/well, except Lovo, which were plated at 4,000 or 1,000 cells/well, respectively. The cells were incubated in DMSO (control) or a compound for 3 days at 37° C. under 5% C02. A CELLTITER-GLO® reagent (100 μL) was then added to each well. After a 10 min incubation with shaking, luminescence was measured using an ENVISION® multimode plate reader. IC50 values are summarized in Table 1 and percentages of inhibition are summarized in Table 2, where compound T1 is 2-(4-(2-methyl-3,5-diphenylpyrazolo[1,5-a]pyrimidin-7-yl)piperazin-1-yl)ethan-1-ol.

AsPC-1 (G12D) cells = assay: Cell viability assay (CELLTITER-GLO), AsPC-1 cells; settings: 3 days incubation, 2.5% fetal bovine serum, read-out: Inhibition of Cancerous Cells IC50 (μM) AsPC-1 (G12D)
Protocol: as §1

Lovo (G13D) cells = assay: Cell viability assay (CELLTITER-GLO), Lovo cells; settings: 3 days incubation, 2.5% fetal bovine serum, read-out: Inhibition of Cancerous Cells IC50 (μM) Lovo (G13D)
Protocol: as §1

SW48 (wt) cells = assay: Cell viability assay (CELLTITER-GLO), SW48 cells; settings: 3 days incubation, 2.5% fetal bovine serum, read-out: Inhibition of Cancerous Cells IC50 (μM) SW48 (wt)
Protocol: as §1

SW480 (G12V) cells = assay: Cell viability assay (CELLTITER-GLO), SW480 cells; settings: 3 days incubation, 2.5% fetal bovine serum, read-out: Inhibition of Cancerous Cells IC50 (μM) SW480 (G12V)
Protocol: as §1

SMILES | IC50 (H358 (G12C) cells; Homo sapiens, NCI-H358, 72 h) | IC50 (AsPC-1 (G12D) cells; Homo sapiens, ASPC1, 72 h) | IC50 (Lovo (G13D) cells; Homo sapiens, 72 h) | IC50 (SW48 (wt) cells; Homo sapiens, 72 h) | IC50 (SW480 (G12V) cells; Homo sapiens, 72 h) | IC50 (H358 (G12C) cells) | IC50 (AsPC-1 (G12D) cells) | IC50 (Lovo (G13D) cells) | IC50 (SW48 (wt) cells) | IC50 (SW480 (G12V) cells)
Cc1nn2c(N3CCN(CCO)CC3)cc(-c3ccccc3)nc2c1-c1cccc(CCCCCCCCCN2CCN(C(=O)COc3cccc(N4CCC(=O)NC4=O)c3)CC2)c1 [Compound C12, 1-(3-(2-(4-(9-(3-(7-(4-(2-hydroxyethyl)piperazin-1-yl)-2-methyl-5-phenyl-pyrazolo[1,5-a]pyrimidin-3-yl)phenyl)nonyl)piperazin-1-yl)-2-oxoethoxy)phenyl)dihydro-pyrimidine-2,4(1H,3H)-dione] | 1.4 µM | 1 µM | 0.63 µM | 0.73 µM | 0.45 µM |  |  |  |  | 
Cc1nn2c(N3CCN(CCO)CC3)cc(-c3ccccc3)nc2c1-c1cccc(CCCCCN2CCN(C(=O)CNc3cccc4c(C5CCC(=O)NC5=O)nn(C)c34)CC2)c1 (centres unmarked) [Compound D11, 3-(7-((2-(4-(5-(3-(7-(4-(2-Hydroxyethyl)piperazin-1-yl)-2-methyl-5-phenyl-pyrazolo[1,5-a]pyrimidin-3-yl)phenyl)pentyl)piperazin-1-yl)-2-oxoethyl)amino)-1-methyl-1H-indazol-3-yl)piperidine-2,6-dione] | 1.2 µM | 1.4 µM | 0.73 µM | 0.84 µM | 0.48 µM |  |  |  |  | 
Cc1nn2c(N3CCN(CCO)CC3)cc(-c3ccccc3)nc2c1-c1cccc(CCCN2CCN(C(=O)CNc3ccc4c(N5CCC(=O)NC5=O)nn(C)c4c3)CC2)c1 [Compound D13, 1-(6-((2-(4-(3-(3-(7-(4-(2-Hydroxyethyl)piperazin-1-yl)-2-methyl-5-phenyl-pyrazolo[1,5-a]pyrimidin-3-yl)phenyl)propyl)piperazin-1-yl)-2-oxoethyl)amino)-1-methyl-1H-indazol-3-yl)dihydropyrimidine-2,4(1H,3H)-dione] | 1.1 µM | 2.3 µM | 0.66 µM | 2 µM | 0.76 µM |  |  |  |  | 
Cc1nn2c(N3CCN(CCO)CC3)cc(-c3ccccc3)nc2c1-c1cccc(CCCCCN2CCN(C(=O)CNc3ccc4c(N5CCC(=O)NC5=O)nn(C)c4c3)CC2)c1 [Compound D14, 1-(6-((2-(4-(5-(3-(7-(4-(2-Hydroxyethyl)piperazin-1-yl)-2-methyl-5-phenyl-pyrazolo[1,5-a]pyrimidin-3-yl)phenyl)pentyl)piperazin-1-yl)-2-oxoethyl)amino)-1-methyl-1H-indazol-3-yl)dihydropyrimidine-2,4(1H,31H)-dione] |  |  |  |  |  | 2.2 µM | > 10 µM | 0.62 µM | > 10 µM | 1.1 µM
Cc1nn2c(N3CCN(CCO)CC3)cc(-c3ccccc3)nc2c1-c1cccc(CCCCCN2CCN(C(=O)CNc3ccc4c(C5CCC(=O)NC5=O)nn(C)c4c3)CC2)c1 (centres unmarked) [Compound D8, 3-(6-((2-(4-(5-(3-(7-(4-(2-Hydroxyethyl)piperazin-1-yl)-2-methyl-5-phenyl-pyrazolo[1,5-a]pyrimidin-3-yl)phenyl)pentyl)piperazin-1-yl)-2-oxoethyl)amino)-1-methyl-1H-indazol-3-yl)piperidine-2,6-dione] | 1.2 µM | 1.3 µM | 0.63 µM | 0.72 µM | 0.4 µM |  |  |  |  | 
Cc1nn2c(N3CCN(CCO)CC3)cc(-c3ccccc3)nc2c1-c1cccc(CCCCCCCN2CCN(C(=O)COc3cccc(N4CCC(=O)NC4=O)c3)CC2)c1 [Compound C11, 1-(3-(2-(4-(7-(3-(7-(4-(2-Hydroxyethyl)piperazin-1-yl)-2-methyl-5-phenyl-pyrazolo[1,5-a]pyrindin-3-yl)phenyl)heptyl)piperazin-1-yl)-2-oxoethoxy)phenyl)dihydro-pyrimidine-2,4(1H,3H)-dione] | 1.2 µM | 1.2 µM | 0.89 µM | 1.1 µM | 0.53 µM |  |  |  |  | 
Cc1nn2c(N3CCN(CCO)CC3)cc(-c3ccccc3)nc2c1-c1cccc(CCCCCCCCCN2CCN(C(=O)COc3ccc(N4CCC(=O)NC4=O)cc3)CC2)c1 [Compound C9, 1-(4-(2-(4-(9-(3-(7-(4-(2-hydroxyethyl)piperazin-1-yl)-2-methyl-5-phenyl-pyrazolo[1,5-a]pyrimidin-3-yl)phenyl)nonyl)piperazin-1-yl)-2-oxoethoxy)phenyl)dihydro-pyrimidine-2,4(1H,3H)-dione] | 1.1 µM | 0.96 µM | 0.47 µM | 0.48 µM | 0.42 µM |  |  |  |  | 
Cc1nn2c(N3CCN(CCO)CC3)cc(-c3ccccc3)nc2c1-c1cccc(CCCN2CCN(C(=O)CNc3cccc4c(C5CCC(=O)NC5=O)nn(C)c34)CC2)c1 (centres unmarked) [Compound D10, 3-(7-((2-(4-(3-(3-(7-(4-(2-Hydroxyethyl)piperazin-1-yl)-2-methyl-5-phenyl-pyrazolo[1,5-a]pyrimidin-3-yl)phenyl)propyl)piperazin-1-yl)-2-oxoethyl)amino)-1-methyl-1H-indazol-3-yl)piperidine-2,6-dione] | 2.4 µM | 1.4 µM | 0.87 µM | 1.3 µM | 0.63 µM |  |  |  |  | 
Cc1nn2c(N3CCN(CCO)CC3)cc(-c3ccccc3)nc2c1-c1cccc(CCCCCN2CCN(C(=O)COc3ccc(N4CCC(=O)NC4=O)cc3)CC2)c1 [Compound C7, 1-(4-(2-(4-(5-(3-(7-(4-(2-hydroxyethyl)piperazin-1-yl)-2-methyl-5-phenyl-pyrazolo[1,5-a]pyrimidin-3-yl)phenyl)pentyl)piperazin-1-yl)-2-oxoethoxy)phenyl)dihydro-pyrimidine-2,4(1H,3H)-dione] | 1.1 µM | 0.91 µM | 0.73 µM | 0.7 µM | 0.45 µM |  |  |  |  | 

Further compounds by falling IC50 (H358 (G12C) cells; Homo sapiens, NCI-H358, 72 h), results first:

IC50 (H358 (G12C) cells; Homo sapiens, NCI-H358, 72 h) | IC50 (AsPC-1 (G12D) cells; Homo sapiens, ASPC1, 72 h) | IC50 (Lovo (G13D) cells; Homo sapiens, 72 h) | IC50 (SW48 (wt) cells; Homo sapiens, 72 h) | IC50 (SW480 (G12V) cells; Homo sapiens, 72 h) | IC50 (H358 (G12C) cells) | IC50 (AsPC-1 (G12D) cells) | IC50 (Lovo (G13D) cells) | IC50 (SW48 (wt) cells) | IC50 (SW480 (G12V) cells) | SMILES
1.1 µM |  | 1.1 µM | 1.4 µM | 1.3 µM |  |  |  |  |  | Cc1nn2c(N3CCN(CCO)CC3)cc(-c3cccc(CCCN4CCN(C(=O)CNc5cccc(C6CCC(=O)NC6=O)c5)CC4)c3)nc2c1-c1ccccc1 (centres unmarked) [Compound B4, 3-(3-((2-(4-(3-(3-(7-(4-(2-Hydroxyethyl)piperazin-1-yl)-2-methyl-3-phenyl-pyrazolo[1,5-a]pyrimidin-5-yl)phenyl)propyl)piperazin-1-yl)-2-oxoethyl)amino)phenyl)-piperidine-2,6-dione]
0.94 µM |  | 0.74 µM | 1.1 µM | 1.2 µM |  |  |  |  |  | Cc1nn2c(N3CCN(CCO)CC3)cc(-c3cccc(CCCN4CCN(C(=O)CNc5ccc(C6CCC(=O)NC6=O)cc5)CC4)c3)nc2c1-c1ccccc1 (centres unmarked) [Compound B1, 3-(4-((2-(4-(3-(3-(7-(4-(2-Hydroxyethyl)piperazin-1-yl)-2-methyl-3-phenyl-pyrazolo[1,5-a]pyrimidin-5-yl)phenyl)propyl)piperazin-1-yl)-2-oxoethyl)amino)phenyl)-piperidine-2,6-dione]
0.82 µM |  | 0.32 µM | 0.52 µM | 0.45 µM |  |  |  |  |  | Cc1nn2c(N3CCN(CCO)CC3)cc(-c3cccc(CCCCCN4CCN(C(=O)CNc5ccc6c(C7CCC(=O)NC7=O)nn(C)c6c5)CC4)c3)nc2c1-c1ccccc1 (centres unmarked) [Compound D2, 3-(6-((2-(4-(5-(3-(7-(4-(2-hydroxyethyl)piperazin-1-yl)-2-methyl-3-phenylpyrazolo[1,5-a]pyrimidin-5-yl)phenyl)pentyl)piperazin-1-yl)-2-oxoethyl)amino)-1-methyl-1H-indazol-3-yl)piperidine-2,6-dione]
0.75 µM |  | 0.52 µM | 0.94 µM | 0.84 µM |  |  |  |  |  | Cc1nn2c(N3CCN(CCO)CC3)cc(-c3cccc(CCCN4CCN(C(=O)CNc5cccc6c(C7CCC(=O)NC7=O)nn(C)c56)CC4)c3)nc2c1-c1ccccc1 (centres unmarked) [Compound D4, 3-(7-((2-(4-(3-(3-(7-(4-(2-Hydroxyethyl)piperazin-1-yl)-2-methyl-3-phenyl-pyrazolo[1,5-a]pyrimidin-5-yl)phenyl)propyl)piperazin-1-yl)-2-oxoethyl)amino)-1-methyl-1H-indazol-3-yl)piperidine-2,6-dione]
0.71 µM |  | 0.4 µM | 0.49 µM | 0.39 µM |  |  |  |  |  | Cc1nn2c(N3CCN(CCO)CC3)cc(-c3cccc(CCCCCN4CCN(C(=O)CNc5ccc(C6CCC(=O)NC6=O)cc5)CC4)c3)nc2c1-c1ccccc1 (centres unmarked) [Compound B2, 3-(4-((2-(4-(5-(3-(7-(4-(2-hydroxyethyl)piperazin-1-yl)-2-methyl-3-phenylpyrazolo[1,5-a]pyrimidin-5-yl)phenyl)pentyl)piperazin-1-yl)-2-oxoethyl)amino)phenyl)piperidine-2,6-dione]
